Patent publication US8378107B2, “Heteroaryl antagonists of prostaglandin D2 receptors” (Panmira Pharmaceuticals, LLC, priority 2008, dated 2013)

Biological target: T1, human DP2 receptor (Homo sapiens, UniProt Q9Y5Y4)
T1 construct: expressed in transfected cells; membrane preparation
T1 sequence (Q9Y5Y4 1-395): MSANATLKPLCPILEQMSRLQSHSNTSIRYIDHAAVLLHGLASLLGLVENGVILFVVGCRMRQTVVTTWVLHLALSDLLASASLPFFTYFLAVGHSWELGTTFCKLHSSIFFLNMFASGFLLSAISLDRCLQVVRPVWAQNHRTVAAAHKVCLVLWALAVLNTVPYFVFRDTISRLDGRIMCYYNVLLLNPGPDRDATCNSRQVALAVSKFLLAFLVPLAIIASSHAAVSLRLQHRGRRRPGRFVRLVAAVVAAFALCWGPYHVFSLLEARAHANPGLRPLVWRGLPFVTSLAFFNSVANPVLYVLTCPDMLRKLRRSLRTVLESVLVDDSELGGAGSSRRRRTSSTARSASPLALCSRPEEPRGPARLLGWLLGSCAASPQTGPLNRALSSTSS
Test: DP2/CRTH2 radioligand binding assay using [3H]PGD2
Conditions: membranes of HEK293 cells expressing recombinant human DP2, 1 nM [3H]PGD2; read-out: hDP2
Method: The ability of a compound to bind to the human DP2 receptor is assessed via a radioligand binding assay using [^3H]PGD2. HEK293 cells stably expressing recombinant human DP2 are resuspended in 10 mM Hepes, 7.4 containing 1 mM DTT, lysed and centrifuged at 75,000×g to pellet the membranes. The membranes are resuspended in 10 mM Hepes, 7.4 containing 1 mM DTT and 10% glycerol to approximately 5 mg protein/ml. Membranes (2-10 μg protein/well) are incubated in 96-well plates with 1 nM [^3H]PGD2 and test compound in Assay Buffer (50 mM Hepes, 10 mM MnCl2, 1 mM EDTA, plus or minus 0.2% human serum albumin, pH 7.4) for 60 minutes at room temperature. The reactions are terminated by rapid filtration through Whatman GF/C glass fibre filter plates. The filter plates were pre-soaked in 0.33% polyethylenimine for 30 minutes at room temperature then washed in Wash Buffer (50 mM Hepes, 0.5 M NaCl pH 7.4) prior to harvesting. After harvesting, the filter plates are washed 3 times with 1 ml cold Wash Buffer then dried. Scintillant is then added to the plates and the radioactivity retained on the filters is determined on a Packard TopCount (Perkin Elmer). Specific binding is determined as total radioactive binding minus non-specific binding in the presence of 10 μM PGD2. IC50s were determined using GraphPad prism analysis of drug titration curves.

Structure (SMILES) | IC50 [nM]
COc1ccc(CC(=O)O)cc1-c1ncccc1CNC(=O)OCc1ccccc1 [Compound 1-1, {3-[3-(Benzyloxycarbonylamino-methyl)-pyridin-2-yl]-4-methoxy-phenyl}-acetic acid] | > 1000
CCN(Cc1cc(C)cnc1-c1cc(CC(=O)O)ccc1OC)C(=O)C1CC1 [Compound 1-2, (3-{3-[(Cyclopropanecarbonyl-ethyl-amino)-methyl]-5-methyl-pyridin-2-yl}-4-methoxy-phenyl)-acetic acid] | 300 to 1000
CCN(Cc1cc(C)cnc1-c1cc(CC(=O)O)ccc1OC)C(=O)CCc1ccccc1 [Compound 1-3, [3-(3-{[Ethyl-(3-phenyl-propionyl)-amino]-methyl}-5-methyl-pyridin-2-yl)-4-methoxy-phenyl]-acetic acid] | < 300
CCN(Cc1cc(C)cnc1-c1cc(CC(=O)O)ccc1OC)C(=O)NCc1ccccc1 [Compound 1-4, {3-[3-(3-Benzyl-1-ethyl-ureidomethyl)-5-methyl-pyridin-2-yl]-4-methoxy-phenyl}-acetic acid] | < 300
CCN(Cc1cc2ccccc2nc1-c1cc(CC(=O)O)ccc1OC)C(=O)C1CC1 [Compound 2-1, (3-{3-[(Cyclopropanecarbonyl-ethyl-amino)-methyl]-quinolin-2-yl}-4-methoxy-phenyl)-acetic acid] | 300 to 1000
CCN(Cc1cc2ccccc2nc1-c1cc(CC(=O)O)ccc1OC)C(C)=O [Compound 2-2, (3-{3-[(Acetyl-ethyl-amino)-methyl]-quinolin-2-yl}-4-methoxy-phenyl)-acetic acid] | > 1000
CCN(Cc1cc2ccccc2nc1-c1cc(CC(=O)O)ccc1OC)C(=O)COC [Compound 2-3, [3-(3-{[Ethyl-(2-methoxy-acetyl)-amino]-methyl}-quinolin-2-yl)-4-methoxy-phenyl]-acetic acid] | > 1000

Further lines, results first:

IC50 [nM] | Structure (SMILES)
< 300 | CCN(Cc1nc2ccccc2cc1-c1cc(CC(=O)O)ccc1OC)C(=O)C1CC1 [Compound 2-4, (3-{2-[(Cyclopropanecarbonyl-ethyl-amino)-methyl]-quinolin-3-yl}-4-methoxy-phenyl)-acetic acid]
< 300 | CCC(=O)N(CC)Cc1nc2ccccc2cc1-c1cc(CC(=O)O)ccc1OC [Compound 2-5, (3-{2-[(Ethyl-propionyl-amino)-methyl]-quinolin-3-yl}-4-methoxy-phenyl)-acetic acid]
< 300 | CCN(Cc1nc2ccccc2cc1-c1cc(CC(=O)O)ccc1OC)C(=O)COC [Compound 2-6, [3-(2-{[Ethyl-(2-methoxy-acetyl)-amino]-methyl}-quinolin-3-yl)-4-methoxy-phenyl]-acetic acid]
< 300 | COc1ccc(CC(=O)O)cc1-c1cc2ccccc2nc1CN(Cc1ccccc1)C(C)=O [Compound 2-7, (3-{2-[(Acetyl-benzyl-amino)-methyl]-quinolin-3-yl}-4-methoxy-phenyl)-acetic acid]
< 300 | COc1ccc(CC(=O)O)cc1-c1cc2ccccc2nc1CN(Cc1ccccc1)C(=O)C1CC1 [Compound 2-8, (3-{2-[(Benzyl-cyclopropanecarbonyl-amino)-methyl]-quinolin-3-yl}-4-methoxy-phenyl)-acetic acid]
300 to 1000 | O=C(O)CCn1c2c(c3ccccc31)C[C@H](NS(=O)(=O)c1ccc(F)cc1)CC2 [Ramatroban, reference compound]
